Where two headings read alike, the source gives them in different places.
Columns and labels:
[1] = tested on: VEGF-induced angiogenesis; settings: 100 μM; cited from earlier work
[2] = tested on: monocytes, endothelial cells, and lymphocytes; settings: cited from earlier work
human neutrophils = test: Human neutrophil chemotaxis (fMLP-induced, Boyden chamber); type: cell-based; settings: average
Description: Peripheral blood from healthy human volunteers was collected and the neutrophils were isolated by Ficoll-paque density centrifugation followed by dextran sedimentation and hypotonic lysis of the red blood cells. Neutrophil chemotaxis was assessed using a modified Boyden Chamber (Neuroprobe, 96-well) with a 3 μm pore polycarbonate membrane. The ability of the tested compounds to block chemotaxis induced by a 1 μM fMLP challenge during a one hour incubation at 37° C. with 5% CO2 was assessed in a dose response manner.

[3] = Rat oral pharmacokinetics (plasma); type: in vivo; settings: rat oral PK, mean of n = 3 rats
Description: Plasma (EDTA K2 anticoagulant) was collected from male, cannulated, CD Sprague Dawley rats to determine the pharmacokinetics of formulations containing compound inhibitors of Rho kinase. Each animal was dosed orally with a 4 ml/kg solution or suspension of each test compound in 10 mM acetate buffered saline, pH 4.5 at a final concentration range of 20-30 mol/kg. Blood was collected at 0.25, 0.5, 1, 2, 4, 6, 8, and 24 hours. Plasma samples were assayed for the concentration of the test compound using an on-line, solid phase extraction LC/MS/MS analysis system.
Pharmacokinetic analyses were performed using WinNonlin software version 5.2 (Pharsight Corporation, Mountain View, Calif.).
As determined from the plasma concentration versus time curves, the time to peak and peak exposure are represented by the values Tmax and Cmax, respectively. The AUC values (nM*hr) shown were calculated as the areas under the plasma concentration versus time curves from time zero through the time of the last observable value and represent the total exposure of the compound over the course of the study. Half-life values or the amount of time required for the plasma levels of the compound to decline to half the initial value are represented as t1/2.

[4] = tested on: ova-sensitized, ova-challenged BALB/c mice; test: In vivo anti-inflammatory activity, mouse ovalbumin sensitization model (BALF cells and cytokines)
Description: Upon arrival, the animals were randomized into groups of five males per cage and assigned to a dosing group. Animals were quarantined for 7 days under test conditions. […] Animals were sensitized on day 0 and 14 of study by an intraperitoneal injection with 20 μg of ovalbumin (ova) and 2.0 mg aluminum hydroxide (alum) which initiates the development of a specific T-helper (Th) cells type 2 resulting in asthmatic animals (denoted as Ova in the fugures). One group of animals received an injection of saline to use as control animals (denoted as normal in the figures). […] Aerosol challenge consists of using an Aerogen Aeroneb nebulizer and controller with a particle size of 4-6 μm mass median aerodynamic diameter (MMAD) with a distribution of 400 μl per minute. This aerosol challenge is necessary to target the Th2-driven allergic inflammation in the lower airways.
The anti-inflammatory dosing paradigm (FIG. 5) was utilized to evaluate the anti-inflammatory effects of experimental compounds. […] On day 32 of the experiment, after measurement of airway hyperreactivity, BALF was collected and all animals were anesthetized, bled and euthanized.
Bronchoalveolar lavage fluid (BALF) was collected by infusing 3.0 ml of saline with 10% fetal calf serum into the lungs via the trachea and then withdrawing the fluid. The total amount of cells/ml of BALF fluid was determined via manual cell count on hemocytometer. The BALF was centrifuged, supernatant removed and analyzed for cytokine concentrations as described below, and cell pellet reconstituted in 500 μL of fluid. Cytospin slides were prepared from the cell pellet using 100 μL of fluid and spinning samples for 5 minutes at 5000 rpms in a cytospin centrifuge, Following Hema3 stain, relative percentages of individual leukocytes were determined on a 200 cell count for each sample. The final concentration of individual leukocyte cell types per ml of BALF was determined by multiplication of the relative percentage of individual leukocytes with the total amount of cells/ml of BALF fluid.
The concentrations of cytokines in the BALF samples were determined using commercially available Bio-plex kits (Bio-Rad) for the detection of mouse IL-5, IL-13, and Eotaxin. The analysis of cytokine levels was measured using the Bio-Plex 200 (Bio-Rad) system according to the manufacturer's instructions.

[5] = tested on: cytokine secretion from LPS-stimulated human monocytes; test: Human monocyte cytokine secretion assay (LPS-stimulated); type: cell-based
Description: Peripheral blood from healthy human volunteers was collected and the monocytes isolated via Ficoll-paque density centrifugation. […] The cells were allowed to pre-incubate with test compound at the indicated concentration for 30 minutes (37° C., 5% CO2, humidified air); after which the supernatant was removed and media containing compound and 1 ng/mL LPS was added. Cells were allowed to incubate with compounds and LPS for 4 hours at 37° C. after which the supernatant was removed and stored at −80° C. Cytokine concentrations in the supernatant were determined using commercially available Bio-Rad Bio-Plex™ kits according the manufacturer's instructions.

[6] = tested on: LPS-challenged BALB/c mice; test: LPS-induced neutrophilia and cytokine production assay; type: in vivo, mouse; settings: for IL-1β levels in BALF: intratracheal administration, LPS-challenged animals
Description: Male BALB/c mice, approximately 19 to 21 grams, were ordered from Charles River Laboratories (Raleigh, N.C.). All animals were challenged with aerosolized LPS (10 μg/ml) for 25 minutes on study day 0. LPS aerosol was generated using an Aerogen Aeroneb nebulizer and controller providing a flow of 400 μl/min and a particle size of 2-4 μm MMAD. Rolipram was administered i.p at 20 mg/kg. […] Four hours following LPS challenge, BALF was collected using a total of 3 ml of 0.9% sodium chloride containing 10% fetal calf serum. Total cell counts were determined using the Coulter Counter. For differential evaluations, BALF was centrifuged and cytospin slides prepared and stained with Hema3 stain. Manual leukocyte counts were then completed on 200 cells. The final concentration of individual leukocyte cell types per ml of BALF was determined by multiplication of the relative percentage of individual leukocytes with the total amount of cells/ml of BALF fluid. The concentration of IL-1β in the BALF samples was determined using commercially available Bio-plex kits (Bio-Rad). The analysis of cytokine levels was measured using the Bio-Plex 200 (Bio-Rad) system according to the manufacturer's instructions.

[7] = tested on: ova-sensitized, ova-challenged BALB/c mice; test: Prevention of airway hyperreactivity (Penh, methacholine) in mouse ovalbumin sensitization model; type: in vivo; settings: for airway hyperreactivity: intratracheal once a day
Description: The anti-inflammatory dosing paradigm consists of dosing the animals once a day starting on day 27 and finishing on either day 30 or 31 (1 hr prior to the aerosolized ovalbumin challenges on days 28 to 30) but not on day 32 when hyperreactivity evaluation occurs. […] Exposure to the methacholine doses consisted of a 3 minute period during which a nebulizer was aerosolizing the methacholine and an additional 3 minute period following the cessation of nebulization. […] Enhanced pause (Penh), a unitless index of airway hyperreactivity, is derived from the expiratory side of the respiratory waveform measured via the plethysmograph and is used as an indirect measure of airway resistance and hyperreactivity. […] Following the methacholine dose response, BALF was collected and all animals were anesthetized, bled and euthanized. […] The Penh value at each of the dose levels of methacholine represents the 6-minute average response. Change from baseline (CFB) in Penh was calculated at each methacholine dose and the area under the curve (AUC) for these CFB values was calculated using the trapezoidal rule. This same approach was applied for each mouse across multiple experiments. […] Data from equal experimental conditions across experiments performed on different days were pooled for statistical analysis and data reporting. […] A random intercept for each experiment was assumed to account for possible similarities of the results obtained from a given experiment (i.e., as a “blocking effect”). […] For FIG. 11, linear AUC values from compound treated mice were reported as a percent of linear AUC values from vehicle-treated ovalbumin-sensitized/ovalbumin-challenged (asthmatic) mice.

[8] = Compound concentrations in lungs of ova-sensitized mice post IP, PO and IT administration; type: in vivo; settings: male, Balb/c, mouse, lung, other: intratracheal (IT), BD model, IT 5 μmol/kg, read-out: Lung, nM (plasma corrected lung concentration)
Description: Additionally, compound concentrations were determined in the plasma and lungs of male, ovalbumin-sensitized, Balb/c mice from a murine model of asthma. Test compounds were formulated in water or 1% polysorbate 80 and dosed at 15 μmol/kg for intraperitoneal (IP) or oral (PO) administration or formulated for intratracheal (IT) administration and dosed at 5 μmol/kg, which directly targets the lungs. Following completion of the in vivo study, mice were euthanized and blood and plasma collected approximately 2.5-3 hours post administration of test compound for bronchodialator (BD) studies and 24 hours post administration for anti-inflamatory (AI) studies. Lungs were homogenized in Matrix A lysing tubes using a FastPrep 24 tissue and cell homogenizer (MP Biomedicals, Solon, Ohio). Both plasma samples and lung extracts were assayed for compound concentrations using an on-line, solid phase extraction LC/MS/MS system. The actual lung tissue concentrations of each compound in mouse were extrapolated from the lung and plasma concentrations, data are shown in Table 11. The results of a set of experiments using unsensitized mice and collecting only plasma 15 minutes post administration of test compounds are shown in Table 12.

murine eosinophils = test: Murine eosinophil chemotaxis (eotaxin-induced); type: cell-based, mouse; settings: 10 nM eotaxin challenge
Description: Mouse Eosinophil Isolation: Bronchoalveolar lavage was collected from ovalbumin sensitized and challenged mice in a volume of 2.5 mL lavage buffer. The lavage buffer was 0.9% saline with 10% fetal bovine serum. The pooled lavages were maintained on ice until use. The murine eosinophils were isolated using MACS cell separation (Miltenyi Biotech) by depletion of B cells and T cells by positive selection following incubation with antibody conjugated magnetic beads specific for CD45-R (B220) and CD90 (Thy 1.2), which bind B cells and T cells, respectively.
(§1) In Vitro Chemotaxis: Eosinophil chemotaxis was assessed using a modified Boyden Chamber (Neuroprobe, 96-well) with a 5 μm pore membrane. The ability of the tested compounds to block chemotaxis induced by a 10 nM eotaxin challenge (mouse) or 1 nM eotaxin challenge (human) during one hour incubation at 37° C. with 5% CO2 was assessed.

human eosinophils = test: Human eosinophil chemotaxis (eotaxin-induced); type: cell-based; settings: 1 nM eotaxin challenge
Source text: Human Eosinophil Isolation: Peripheral blood from healthy human volunteers was collected and the PMNs separated via Ficoll-paque density centrifugation followed by hypotonic lysis of the red blood cells. Subsequently, the human eosinophils were isolated from the cell suspension via StemCell Technologies Human Eosinophil Enrichment kit (Cat. No 19256) according to the manufacturer's recommendations. Briefly, unwanted cells were specifically labeled with dextran-coated magnetic nanoparticles using bispecific Tetrameric Antibody Complexes (TAC) directed against cell surface antigens on human blood cells: CD2, CD3, CD14, CD16, CD19, CD20CD36, CD56, CD123, glycophorin A and dextran. The unwanted cells are then separated from the unlabelled eosinophils using the EasySep® magnetic isolation procedure.
as §1

[9] = Compound plasma concentrations in unsensitized mice at 15 min post administration; type: in vivo; settings: mouse, 15 μmol/kg; mean plasma concentration in mice at 15 minutes post oral administration; read-out: Mouse Oral PK
p70S6K human enzyme = p70S6K human enzyme (Homo sapiens, UniProt P23443, T412E); test: p70S6K inhibition assay (IMAP FP); type: biochemical
p70S6K human enzyme, sequence (P23443 whole entry T412E): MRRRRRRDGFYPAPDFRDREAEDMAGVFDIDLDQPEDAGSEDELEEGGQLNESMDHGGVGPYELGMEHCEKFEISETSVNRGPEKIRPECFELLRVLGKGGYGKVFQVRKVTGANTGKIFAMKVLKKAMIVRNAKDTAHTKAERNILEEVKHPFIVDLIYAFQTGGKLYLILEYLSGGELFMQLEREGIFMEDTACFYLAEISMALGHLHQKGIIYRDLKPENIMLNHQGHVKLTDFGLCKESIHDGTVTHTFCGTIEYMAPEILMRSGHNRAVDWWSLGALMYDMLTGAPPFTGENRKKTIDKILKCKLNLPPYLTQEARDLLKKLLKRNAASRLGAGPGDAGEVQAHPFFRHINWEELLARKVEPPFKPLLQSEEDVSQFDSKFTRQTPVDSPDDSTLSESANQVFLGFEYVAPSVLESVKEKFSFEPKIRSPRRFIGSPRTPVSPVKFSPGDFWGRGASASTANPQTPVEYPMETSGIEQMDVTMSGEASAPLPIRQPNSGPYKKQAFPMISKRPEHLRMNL
Description: (§3) Inhibition of Akt3 and p70S6K activity was determined using the IMAP™ FP Progressive Binding Kit (Molecular Devices product number R8127). […] Following the pre-incubation, 30 μM ATP was added to initiate the reaction. After 60 minutes at RT, Molecular Devices IMAP™ binding solution was added to bind phosphorylated substrate. After 30 minutes of incubation in the presence of the IMAP™ beads the fluorescence polarization was read and the ratio was reported as mP. IC50 results were calculated using the Prism software from Graphpad. The Ki values were determined according to the following formula: Ki=IC50/(1+([ATP Challenge]/EC50 ATP)).

ROCK1 = target: T1, ROCK1 (Homo sapiens, UniProt Q13464); test: Rho kinase inhibition assay (IMAP fluorescence polarization), ROCK1; type: biochemical
T1 construct: purchased Upstate/Chemicon 14-601
T1 sequence (Q13464 17-535 limits assumed): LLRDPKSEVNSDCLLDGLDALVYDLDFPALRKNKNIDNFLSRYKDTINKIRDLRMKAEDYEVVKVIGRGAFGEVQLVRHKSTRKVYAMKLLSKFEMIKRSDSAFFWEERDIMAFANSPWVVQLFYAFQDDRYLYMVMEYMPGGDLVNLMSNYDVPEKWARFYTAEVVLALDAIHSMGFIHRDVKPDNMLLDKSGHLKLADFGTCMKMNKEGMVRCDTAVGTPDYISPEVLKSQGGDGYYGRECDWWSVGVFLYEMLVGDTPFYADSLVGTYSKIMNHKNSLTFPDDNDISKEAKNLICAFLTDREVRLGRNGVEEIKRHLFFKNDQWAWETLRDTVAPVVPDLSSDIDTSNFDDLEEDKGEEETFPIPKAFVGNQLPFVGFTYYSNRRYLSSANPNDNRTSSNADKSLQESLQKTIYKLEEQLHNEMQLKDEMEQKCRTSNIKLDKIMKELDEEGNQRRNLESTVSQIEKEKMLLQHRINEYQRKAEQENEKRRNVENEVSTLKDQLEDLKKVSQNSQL
Description: Following the pre-incubation, 10 μM ATP was added to initiate the reaction. After 60 minutes at room temperature, Molecular Devices IMAP™ binding solution was added to bind phosphorylated substrate. After 30 minutes of incubation in the presence of the IMAP™ beads, the fluorescence polarization was read and the ratio was reported as mP. IC50 values for compounds and EC50 values for ATP were calculated using the Prism software from Graphpad.

Akt3 human enzyme = target: T2, Akt3 human enzyme (Homo sapiens, UniProt Q9Y243); test: Akt3 inhibition assay (IMAP FP); type: biochemical
T2 construct: purchased Upstate Chemicon 14-502
T2 sequence (Q9Y243 whole entry): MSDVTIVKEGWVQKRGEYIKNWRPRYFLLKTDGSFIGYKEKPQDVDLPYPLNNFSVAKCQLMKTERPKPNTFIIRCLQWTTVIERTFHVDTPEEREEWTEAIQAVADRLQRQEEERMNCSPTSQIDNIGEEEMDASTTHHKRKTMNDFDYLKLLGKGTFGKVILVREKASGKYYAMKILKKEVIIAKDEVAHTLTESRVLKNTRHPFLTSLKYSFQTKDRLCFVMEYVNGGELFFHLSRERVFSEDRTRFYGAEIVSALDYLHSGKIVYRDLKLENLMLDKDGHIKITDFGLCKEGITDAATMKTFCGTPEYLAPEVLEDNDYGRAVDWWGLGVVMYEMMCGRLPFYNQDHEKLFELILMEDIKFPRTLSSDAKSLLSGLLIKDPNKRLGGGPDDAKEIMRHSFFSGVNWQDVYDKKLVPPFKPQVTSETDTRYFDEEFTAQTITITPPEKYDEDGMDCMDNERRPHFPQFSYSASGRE
Description: as §3

[10] = tested on: A-10 rat thoracic aorta cells; test: PDGF-stimulated smooth muscle cell proliferation assay (BrdU incorporation); type: cell-based
Description: Effects on cell proliferation were measured using a bromodeoxyuridine (BrdU) incorporation assay. […] Serum free media containing 0.1% BSA was added to the cells. 24 hours later the media was removed and replaced with warmed serum free media. […] Proliferation was then monitored using the BrdU Cell Proiferation Assay, HTS (Calbiochem cat. # HTS01). BrdU was allowed to incorporate into cells for 24 hours prior to the addition of fixative/denaturing solution and the fluorometric detection of incorporated BrdU using a BrdU antibody as per manufacturer's directions. Data are reported as a percent of the PDGF-stimulated BrdU incorporation.

Mnk2 = target: T3, Mnk2 (Homo sapiens, UniProt Q9HBH9); type: biochemical
T3 construct: purchased Upstate, Millipore Bioscience Division (KinaseProfiler service)
T3 sequence (Q9HBH9 whole entry): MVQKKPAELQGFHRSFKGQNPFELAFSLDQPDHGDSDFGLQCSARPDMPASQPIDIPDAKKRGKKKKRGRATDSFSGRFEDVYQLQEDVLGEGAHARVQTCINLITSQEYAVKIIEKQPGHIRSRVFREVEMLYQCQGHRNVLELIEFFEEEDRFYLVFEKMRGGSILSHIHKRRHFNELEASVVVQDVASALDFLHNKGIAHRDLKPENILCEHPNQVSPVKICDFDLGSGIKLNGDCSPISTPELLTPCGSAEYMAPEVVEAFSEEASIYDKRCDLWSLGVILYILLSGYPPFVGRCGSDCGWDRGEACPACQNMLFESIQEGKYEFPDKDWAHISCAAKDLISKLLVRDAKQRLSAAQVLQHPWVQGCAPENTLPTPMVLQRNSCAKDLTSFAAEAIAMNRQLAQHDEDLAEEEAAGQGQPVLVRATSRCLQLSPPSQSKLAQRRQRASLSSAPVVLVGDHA
Description: (§2) Compounds of Formulae I and II were examined for activity against a selected panel of kinases using the KinaseProfiler™ enzyme profiling services (Upstate, Millipore Bioscience Division). Percent kinase activity at 10 μM and 1 μM test compound and 10 μM ATP was determined against 40 wild-type recombinant human kinases according to Upstate's standard protocol: ASK1, BTK, CSK, c-RAF, GCK, GSK3β, IKKα, IKKβ, IRAK1, IRAK4, JNK1α1, JNK2α2, JNK3, ERK1, ERK2, MAPKAP-K2, MAPKAP-K3, MEK1, MKK4, MKK6, MKK7β, Mnk2, MSK1, PAK3, PDK1, PRAK, ROCK1, Rsk2, SAPK2a, SAPK2b, SAPK3, SAPK4, SRPK1, SRPK2, Syk, TAK1, TBK1, PI3-Kβ, PI3-Kγ, PI3-Kδ.

ERK1 = target: T4, ERK1 (Homo sapiens, UniProt P27361); test: Kinase panel screen (KinaseProfiler), ERK1; type: biochemical; settings: 1 μM test compound, 10 μM ATP
T4 construct: purchased Upstate, Millipore Bioscience Division (KinaseProfiler service)
T4 sequence (P27361 whole entry): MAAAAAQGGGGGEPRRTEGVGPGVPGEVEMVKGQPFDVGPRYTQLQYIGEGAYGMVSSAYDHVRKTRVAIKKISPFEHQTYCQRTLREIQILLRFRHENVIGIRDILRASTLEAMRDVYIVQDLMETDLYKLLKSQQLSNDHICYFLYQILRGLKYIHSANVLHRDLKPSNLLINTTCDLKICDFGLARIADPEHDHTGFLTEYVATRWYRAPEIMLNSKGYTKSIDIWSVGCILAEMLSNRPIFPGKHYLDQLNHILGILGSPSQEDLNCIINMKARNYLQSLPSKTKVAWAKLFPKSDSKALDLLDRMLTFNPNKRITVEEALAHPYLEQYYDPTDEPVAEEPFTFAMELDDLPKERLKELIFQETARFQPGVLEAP
Description: as §2

ERK2 = target: T5, ERK2 (Homo sapiens, UniProt P28482); test: Kinase panel screen (KinaseProfiler), ERK2; type: biochemical; settings: 1 μM test compound, 10 μM ATP; read-out: Percent inhibition ERK2 at 1 μM
T5 construct: purchased Upstate, Millipore Bioscience Division (KinaseProfiler service)
T5 sequence (P28482 whole entry): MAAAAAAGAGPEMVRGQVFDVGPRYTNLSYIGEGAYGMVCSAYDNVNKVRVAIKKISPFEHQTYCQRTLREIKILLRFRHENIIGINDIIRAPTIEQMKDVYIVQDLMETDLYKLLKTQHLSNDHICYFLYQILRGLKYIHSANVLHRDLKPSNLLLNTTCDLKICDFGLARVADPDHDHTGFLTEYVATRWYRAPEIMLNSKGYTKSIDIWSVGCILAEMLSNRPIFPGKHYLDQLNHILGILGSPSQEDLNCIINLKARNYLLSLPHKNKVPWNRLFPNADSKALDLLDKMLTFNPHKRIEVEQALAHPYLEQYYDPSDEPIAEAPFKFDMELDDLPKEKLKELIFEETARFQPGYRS
Description: as §2

[11] = 10 μM of test compound, 1 ng/mL LPS, 4 hours, read-out: IL-1β % (Percent inhibition values for inhibition of cytokine secretion)
[12] = 15 μmol/kg/oral on days 27 to 31
[13] = read-out: IL-6 % (Percent inhibition values for inhibition of cytokine secretion), 10 μM of test compound, 1 ng/mL LPS, 4 hours

## O=S(=O)(c1cccc2cnccc12)N1CCCNCC1 [Fasudil]
[1]
  new vessel formation: new vessel formation was prevented
[2]
  expression of IL-1β, TNFα, and various other cytokines: suppress expression

## CS(=O)(=O)Nc1cccc(CN2CCC[C@@H](Nc3ccc4[nH]ncc4c3)C2)c1 [Compound 1.093, (R)-N-(3-((3-(1H-indazol-5-ylamino)piperidin-1-yl)methyl)phenyl)methanesulfonamide]
Human neutrophils
  IC50: 363 µM

## CS(=O)(=O)Nc1cccc(CN2CCC[C@H](Nc3ccc4[nH]ncc4c3)C2)c1 [Compound 1.091, (S)-N-(3-((3-(1H-indazol-5-ylamino)piperidin-1-yl)methyl)phenyl)methanesulfonamide]
[3]
  Cmax: BLQ
  Tmax: BLQ
  Vz_F: BLQ
  t½: BLQ
[3]; time zero through last observable value
  AUC (0-last): BLQ
[4]; dosed i.t. to day 30, anti-inflammatory dosing paradigm
  eosinophil influx (BALF): reduction of eosinophils
[5]; [11]
  activity at 10 µM: 166%
[6]
  IL-1β levels in BALF: reduction in IL-1β
[6]; intratracheal dosing one hour prior to LPS challenge
  LPS-induced pulmonary neutrophilia influx (BALF): significant reduction
[7]; days 27 to 30
  airway hyperreactivity: prevention of airway hyperreactivity
[8]
  concentration at 2.5 h: 123 nM

## CS(=O)(=O)Nc1cccc(CN2CC[C@@H](Nc3cccc4cnccc34)C2)c1 [Compound 2.038, (R)-N-(3-((3-(isoquinolin-5-ylamino)pyrrolidin-1-yl)methyl)phenyl)methanesulfonamide]
[4]; [12]
  concentration of Eotaxin in BALF: reduced levels
  concentration of IL-5 in BALF: reduced levels
  concentration of IL-13 in BALF: reduced levels
[4]; dosed orally to day 31, anti-inflammatory dosing paradigm
  airway eosinophil infiltration (eosinophils per ml of BALF): reduced
Murine eosinophils
  inhibition of eotaxin-induced murine eosinophil chemotaxis: inhibited
[7]; oral 15 μMol/kg once a day, days 27 to 31
  airway hyperreactivity to metacholine on Day 32: prevention of airway hyperreactivity
Human eosinophils
  inhibition of eotaxin-induced human eosinophil chemotaxis: inhibited

## Cc1ccc(CN2CC[C@@H](Nc3cccc4cnccc34)C2)cc1OCCO [Compound 2.064, (R)-2-(5-((3-(isoquinolin-5-ylamino)pyrrolidin-1-yl)methyl)-2-methylphenoxy)ethanol]
[9]
  concentration at 15 min: 202 nM
p70S6K human enzyme; average, read-out: p70S6K Ki
  Ki: 0.178 µM
p70S6K human enzyme; read-out: p70S6K Ki, Avg
  Ki: 0.178 µM
ROCK1
  Ki: 0.0041 µM
ROCK1; read-out: ROCK1 Ki, average
  Ki: 0.0041 µM
[5]; [11]
  activity at 10 µM: 14.3%
[5]; 10 μM of test compound, 1 ng/mL LPS, 4 hours, read-out: TNF-α % (Percent inhibition values for inhibition of cytokine secretion)
  activity at 10 µM: 66.2%
[5]; [13]
  activity at 10 µM: 45.7%
Akt3 human enzyme; average, read-out: Akt3 Ki
  Ki: 0.382 µM
Akt3 human enzyme; read-out: Akt3 Ki, Avg
  Ki: 0.382 µM
[10]; 1 μM, 10 ng/mL PDGF
  Percent of PDGF Induced Proliferation at 1 μM Avg: 53.1%
[10]; 10 μM, 10 ng/mL PDGF
  Percent of PDGF Induced Proliferation at 10 μM Avg: 56.2%
[10]; average percent of PDGF stimulated proliferation at 1 μM test compound
  Proliferation at 1 μM: 53.1%
[10]; average percent of PDGF stimulated proliferation at 10 μM test compound
  Proliferation at 10 μM: 56.2%

## NC(=O)Cn1ccc2cc(CN3CC[C@@H](Nc4cccc5cnccc45)C3)ccc21 [Compound 2.059, (R)-2-(5-((3-(isoquinolin-5-ylamino)pyrrolidin-1-yl)methyl)-1H-indol-1-yl)acetamide]
Mnk2
  Percent inhibition Mnk2 at 1 μM: 49
ERK1
  Percent inhibition at 1 µM: ~50%
ERK2
  activity at 1 µM: ~50%
[5]; [13]
  activity at 10 µM: 0%
[6]
  IL-1β levels in BALF: reduction in IL-1β
[7]; days 27 to 31
  airway hyperreactivity: prevention of airway hyperreactivity

— patent US20090325960A1, “METHOD FOR TREATING INFLAMMATORY DISEASES USING RHO KINASE INHIBITOR COMPOUNDS” (priority 2008, published 2009)
